Where two headings read alike, the source gives them in different places.
Experiments:
LF = LF (Bacillus anthracis, UniProt P15917); experiment: biochemical; parameters: species or system B. anthracis
[1] = system: neonatal rat cardiac fibroblasts; experiment: Cell invasion assay (Chemicon ECM 555); type: cell-based; settings: 250 nM, 20 h
Protocol: Cell Invasion Assay. A cell invasion assay kit was purchased from Chemicon International (Cat. No. ECM 555) and the assay was performed as per kit instructions with minor modifications. Rat cardiac fibroblasts (CF) were prepared as previously described (F. J. Villarreal, N. N. Kim, G. D. Ungab, M. P. Printz, W. H. Dillmann, Circulation 1993, 88, 2849). Briefly, CF were prepared from hearts of 1-2 day old Sprague Dawley rats. Following collagenase digestions (4×), non-myocyte cells (mostly fibroblasts) were isolated by Percoll density gradient. The cell suspension was plated onto uncoated tissue culture dishes for 30 min to allow preferential attachment of CF to the bottom of the dish. The non-adherent cells were removed and fresh media (Dulbecco's modified Eagle's media +10% fetal bovine serum) was added. CF were allowed to proliferate to confluence and then trypsinized and frozen at −70° C. Stocks were freshly plated for the experiment and used from second passage. When reaching 90% confluence, cells were serum deprived for 24 h and then treated according to the experimental design (vide infra).
The CF were trypsinized once more and suspended in fresh serum-free media. Inhibitors AM-5 and AM-6 were dissolved in DMSO and diluted 10-fold in serum free media. […] Increased fluorescence indicates the presence of invaded cells. […]

[2] = target: human MMP-2 catalytic domain (Homo sapiens, UniProt P08253); experiment: MMP-2 fluorescent microplate assay (BIOMOL kit); type: biochemical; settings: for IC50: fluorescence-based assay, 1 h at 37° C. with inhibitor, pH 7.5, read-out: IC50 against MMP-2
Chain of human MMP-2 catalytic domain (P08253 110-452): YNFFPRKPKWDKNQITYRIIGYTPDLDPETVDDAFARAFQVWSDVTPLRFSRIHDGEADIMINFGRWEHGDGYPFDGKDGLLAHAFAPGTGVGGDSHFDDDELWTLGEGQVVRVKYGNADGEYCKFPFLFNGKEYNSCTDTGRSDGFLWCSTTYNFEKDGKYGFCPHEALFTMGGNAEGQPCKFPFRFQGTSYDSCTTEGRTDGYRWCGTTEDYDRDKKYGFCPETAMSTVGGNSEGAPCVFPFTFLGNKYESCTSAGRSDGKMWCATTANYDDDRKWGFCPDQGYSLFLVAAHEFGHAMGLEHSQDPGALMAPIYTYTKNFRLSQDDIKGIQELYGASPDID
From the text: (§1) Experiments were repeated at least three times.

[3] = target: T1, human MMP-1 catalytic domain (Homo sapiens, UniProt P03956); experiment: MMP-1 fluorescent microplate assay (BIOMOL kit); type: biochemical; settings: fluorescence-based assay, 1 h at 37° C. with inhibitor, pH 7.5; read-out: IC50 against MMP-1
T1 sequence (P03956 100-268): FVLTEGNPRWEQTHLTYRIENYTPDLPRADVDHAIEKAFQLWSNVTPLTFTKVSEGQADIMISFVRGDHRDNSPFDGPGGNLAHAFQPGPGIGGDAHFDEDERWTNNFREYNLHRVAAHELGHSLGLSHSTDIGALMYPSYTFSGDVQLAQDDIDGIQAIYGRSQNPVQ
From the text: as §1

HDAC = experiment: Inhibition of histone deacetylase (HDAC); type: biochemical; settings: read-out: Average IC50 against HDAC
[4] = read-out: Average IC50 against LF

Chain of LF (P15917 34-809 limits assumed): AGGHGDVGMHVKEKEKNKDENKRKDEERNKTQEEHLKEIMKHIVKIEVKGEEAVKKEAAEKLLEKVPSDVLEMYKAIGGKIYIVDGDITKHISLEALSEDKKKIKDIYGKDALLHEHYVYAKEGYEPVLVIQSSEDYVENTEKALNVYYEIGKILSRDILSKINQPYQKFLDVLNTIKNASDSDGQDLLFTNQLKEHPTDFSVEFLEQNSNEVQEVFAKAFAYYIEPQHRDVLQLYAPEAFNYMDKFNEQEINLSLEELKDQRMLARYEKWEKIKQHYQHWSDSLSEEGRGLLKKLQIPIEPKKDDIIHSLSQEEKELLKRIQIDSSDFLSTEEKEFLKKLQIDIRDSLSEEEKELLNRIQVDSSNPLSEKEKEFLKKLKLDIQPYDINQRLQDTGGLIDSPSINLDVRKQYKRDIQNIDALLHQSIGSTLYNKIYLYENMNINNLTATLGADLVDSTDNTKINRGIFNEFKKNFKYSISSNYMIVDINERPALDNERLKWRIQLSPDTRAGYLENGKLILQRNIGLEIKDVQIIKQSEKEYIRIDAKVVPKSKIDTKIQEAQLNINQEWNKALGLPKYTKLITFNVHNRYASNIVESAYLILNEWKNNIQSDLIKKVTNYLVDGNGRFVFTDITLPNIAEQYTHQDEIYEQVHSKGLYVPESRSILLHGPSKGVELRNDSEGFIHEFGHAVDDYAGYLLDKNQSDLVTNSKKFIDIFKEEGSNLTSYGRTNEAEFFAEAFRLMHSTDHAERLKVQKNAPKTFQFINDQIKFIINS

| Compound | potency against MMP-2 compared with MMP-3, in words [2] | IC50 [2] | IC50 [3] | further results |
| --- | --- | --- | --- | --- |
| O=C(NCc1ccc(-c2ccccc2)cc1)c1occc(=S)c1O [PY-2S (27), 3-Hydroxy-4-thiopyrone-2-carboxy-N-(4-phenylbenzylamide)] | – | – | – | IC50 (LF): 38 µM |
| Cc1cc(=O)c(O)c(C(=O)NCc2ccc(-c3ccc(C#N)cc3)cc2)o1 [AM-5, 3-Hydroxy-6-methyl-pyran-4(1H)-one-2-carboxy-N-(4-(4-cyanophenyl)benzylamide)] | substantially less potent against MMP-2 | 0.61 µM | > 50 µM | reduction of invasion of neonatal rat cardiac fibroblasts through a collagen membrane [1]: 67% |
| Cc1cc(=O)c(O)c(C(=O)NCCc2ccc(-c3ccccc3)cc2)o1 [AM-3] | – | 27 µM | > 50 µM | – |
| CC(=O)NO [AHA (N-hydroxyacetamide), N-hydroxyacetamide, reference compound] | – | – | – | IC50 (LF; [4]): 11400 µM; IC50 (HDAC): 3200 µM |
| Cc1cc(=O)c(O)c(C(=O)NCc2ccc(-c3ccc(-c4ccccc4)cc3)cc2)o1 [AM-6, 3-Hydroxy-6-methyl-pyran-4(1H)-one-2-carboxy-N-(4-biphenylbenzylamide)] | substantially less potent against MMP-2 | > 50 µM | > 50 µM | reduction of invasion of neonatal rat cardiac fibroblasts through a collagen membrane [1]: 55% |
| On1ccccc1=S [1,2-HOPTO] | – | – | – | IC50 (LF; [4]): 3900 µM; IC50 (HDAC): 860 µM |
| Cc1cc(=O)c(O)c(C(=O)Nc2ccc(-c3ccccc3)cc2)o1 [AM-1, 3-Hydroxy-6-methyl-pyran-4(1H)-one-2-carboxy-N-(4-biphenylamide)] | – | 36 µM | > 50 µM | – |
| O=C(NCCc1ccc(-c2ccccc2)cc1)c1occc(=S)c1O [PY-3S (30)] | – | – | – | IC50 (LF): 18.5 µM |
| COc1ccc(CNC(=O)c2oc(C)cc(=O)c2O)cc1 [AM-4] | substantially less potent against MMP-2 | > 50 µM | > 50 µM | – |
| O=C(NCc1ccc(-c2ccccc2)cc1)c1cccc(=O)n1O [compound 20] | – | 0.9 µM | > 12.5 µM | – |
| Cc1cc(=O)c(O)c(C(=O)NCc2ccc(-c3ccccc3)cc2)o1 [AM-2, 3-Hydroxy-6-methyl-pyran-4(1)-one-2-carboxy-N-(4-phenylbenzylamide)] | substantially less potent against MMP-2 | 9.3 µM | > 50 µM | – |
| Cc1occc(=S)c1O [Thiomaltol, thiomaltol] | – | – | – | IC50 (LF): 260 µM; IC50 (HDAC): 247 µM |
